In patent US20040166058A1, “Ethylenedicysteine (EC)-drug conjugates, compositions and methods for tissue specific disease imaging” (Board of Regents, The University of Texas System, priority 2002, published 2004):
Ends that are not written are not given here.

How the values were obtained:
[1] = Cell culture uptake of Re-188 versus Tc-99m labeled EC-agents; assay type: cell-based
Description: To develop EC-DG in a kit form, EC-DG (10 mg) dissolved in 0.2 ml of water was freeze dried with tin chloride (2 mg in 0.2 ml of water) and gluconate (3 mg) in a 10 ml medi-vial and stored at room temperature prior to labeling. During labeling, the freeze dried powder was reconstituted in saline (0.5 ml) and pertechnate (10 mCi) was added. The kit was heated at 55° C. for 30 min (or 75° C. for 15 min). Radiochemical purity of ^99mTc-EC-DG was greater than 95% as determined by radio-TLC (saline, Rf: 0.8)(FIG. 39). A similar method could be applied to other EC-agents such as EC-metronidazole (EC-MN)(FIG. 40) and EC-penciclovir (also known as EC-Guan).

[2] = system: RBA CRL-1747 mammary tumor; assay: Biodistribution in mammary (breast) tumor-bearing rats; assay type: in vivo; details: iv
Description: (§1) Biodistribution was assessed in mammary tumor-bearing rats (RBA CRL-1747, n=3/time interval, iv). Studies were performed 14 to 17 days after implantation when tumors reached approximately 1 cm in diameter. Following administration of the radiotracer, rats were sacrificed at 0.5-4 hrs. The selected tissues were excised, weighed and counted for radioactivity by using a gamma counter (Packard Instruments, Downers Grove, Ill.). The biodistribution of tracer in each sample was calculated as percentage of the injected dose per gram of tissue wet weight (% ID/g).
as §1, with “breast” for “mammary”

[3] = system: RBA CRL-1747 (breast cancer cells); assay: In vitro cellular uptake in breast cancer cells; assay type: cell-based; details: 0.5-2 hrs, 50,000 cells/well
Excerpt: There was more uptake in ^99mTc-EC-carnitine than ^99mTc-EC (FIG. 16).

[4] = system: human ovarian cancer cells; details: 4-6 μCi/50,000 cells/well, 0.5-2 hrs
[5] = system: mammary tumor; assay: Scintigraphic imaging in mammary (breast) tumor-bearing rats; assay type: in vivo; details: 0.1-4 hrs, 0.1 mCi/rat, iv
Description: Scintigraphic imaging studies was performed in mammary tumor-bearing rats at 0.5-4 hrs (0.3 mCi/rat, n=3, iv). Control group was administered ^99mTc-EC. Computer-outlined region of interest was used to determine tumor uptake (counts/pixel) and tumor/nontumor count density ratios.
Scintigraphic imaging studies was performed in mammary tumor-bearing rats at 0.5-4 hrs (0.3 mCi/rat, n=3, iv). Control group was administered ^99mTc-EC.
Scintigraphic imaging studies was performed in mammary tumor-bearing rats at 0.5-4 hrs (0.1 mCi/rat, n=3, iv). Control group was administered ^99mTc-EC.
Scintigraphic imaging studies was performed in breast tumor-bearing rats at 0.5-4 hrs (0.1 mCi/rat, n=3, iv). Control group was administered ^99mTc-EC.
Scintigraphic imaging studies was performed in breast tumor-bearing rats at 0.1-4 hrs (0.1 mCi/rat, n=3, iv). Control group was administered ^99mTc-EC.

[6] = system: human ovarian and uterine cancer cells; assay: In vitro cellular uptake in human ovarian and uterine cancer cells; assay type: cell-based; details: 4-6 μCi/50,000 cells/well, 0.5-2 hrs
Description: An in vitro cell culture using tumor cells was incubated with ^99mTc-EC-penciclovir (4-6 μCi/50,000 cells/well) at 0.5-2 hrs in human ovarian and uterine cancer cells.

[7] = system: human prostate cancer cells (LNCap, PC-3); assay: In vitro cellular uptake in human prostate cancer cells; assay type: cell-based; details: 4-6 μCi/100,000 cells/well, 0.5-2 hrs, LNCap and PC-3
Description: An in vitro cell culture using tumor cells was incubated with ^99mTc-EC-LHRH (4-6 μCi/100,000 cells/well) at 0.5-2 hrs in human prostate cancer cells. Two types cell lines were used. They are either sensitive to androgen (LNCap) or unresponsive to androgen (PC-3) therapy.

[8] = system: RBA CRL-1747 breast cancer cells; assay: In vitro blocking study of ^99mTc-EC-angiostatin uptake with unlabeled angiostatin; assay type: cell-based; details: unlabeled angiostatin 0-200 μM, 0.5-2 hrs, R^2=0.998; read-out: IC-50 of angiostatin (inhibition of ^99mTc-EC-angiostatin uptake)
Description: The IC-50 of angiostatin was 176 μM (R^2=0.998) (FIG. 3).

For `Nc1nc2c(ncn2CCC(CO)CNC(=O)[C@H](CS)NCCN[C@@H](CS)C(=O)NCC(CO)CCn2cnc3c(=O)[nH]c(N)nc32)c(=O)[nH]1` (stereo partly drawn) [EC-Guan], which “uptakes of Re-188 versus Tc-99m labeled agent” value [1] is on record?
The value was “no marked difference between uptakes”.

With `Cc1ccc(-c2cc(C(F)(F)F)nn2-c2ccc(S(=O)(=O)NC(=O)NCC(=O)NCCNC(=O)C3C[S][99Tc]45(=[O])[S]CC(C(=O)O)[N]4CC[N]35)cc2)cc1` (stereo not drawn) [^99mTc-EC-COX-2] as the compound, how does the “tumor-to-tissue count density ratios compared to ^99mTc-EC” value ([2]; 0.5-4 hrs) read?
Its value is “increased tumor-to-tissue count density ratios as a function of time”.

What about the BONE/MUSCLE ([2]; 30 min) of the same compound?
The BONE/MUSCLE was 2.419 ± 0.225.

And the “Biodistribution BONE & JOINT” value ([2]; 30 min)?
The value was 0.324 ± 0.036 % of injected dose per gram of tissue weight.

And the “Biodistribution Blood” value ([2]; 30 min)?
Its value is 2.293 ± 0.038 % of injected dose per gram of tissue weight.

What about the “Biodistribution Heart” value ([2]; 30 min) of the same compound?
The value was 0.475 ± 0.025 % of injected dose per gram of tissue weight.

What about the “Biodistribution Intestine” value ([2]; 30 min) of the same compound?
Its value is 0.406 ± 0.039 % of injected dose per gram of tissue weight.

What about the “Biodistribution Kidney” value ([2]; 30 min) of the same compound?
Its value is 4.963 ± 0.147 % of injected dose per gram of tissue weight.

And the “Biodistribution Liver” value ([2]; 30 min)?
The value was 1.556 ± 0.046 % of injected dose per gram of tissue weight.

What about the “Biodistribution Lung” value ([2]; 30 min) of the same compound?
Its value is 1.033 ± 0.035 % of injected dose per gram of tissue weight.

What about the “Biodistribution Muscle” value ([2]; 30 min) of the same compound?
Its value is 0.133 ± 0.007 % of injected dose per gram of tissue weight.

What about the “Biodistribution Spleen” value ([2]; 30 min) of the same compound?
The value was 0.594 ± 0.298 % of injected dose per gram of tissue weight.

What about the “Biodistribution Stomach” value ([2]; 30 min) of the same compound?
The value was 0.370 ± 0.010 % of injected dose per gram of tissue weight.

And the “Biodistribution Thyroid” value ([2]; 30 min)?
Its value is 0.784 ± 0.090 % of injected dose per gram of tissue weight.

And the “Biodistribution Tumor” value ([2]; 30 min)?
Its value is 0.587 ± 0.062 % of injected dose per gram of tissue weight.

What about the “Biodistribution UTERUS” value ([2]; 30 min) of the same compound?
The value was 0.595 ± 0.003 % of injected dose per gram of tissue weight.

What about the Tumor/Blood ([2]; 30 min) of the same compound?
The Tumor/Blood was 0.255 ± 0.022.

And the Tumor/Muscle ([2]; 30 min)?
Its Tumor/Muscle is 4.375 ± 0.304.

And the UTERUS/BLOOD ([2]; 30 min)?
Its UTERUS/BLOOD is 0.259 ± 0.003.

And the UTERUS/MUSCLE ([2]; 30 min)?
The UTERUS/MUSCLE was 4.471 ± 0.257.

What about the BONE/MUSCLE ([2]; 2 h) of the same compound?
The BONE/MUSCLE was 3.058 ± 0.114.

What about the “Biodistribution BONE & JOINT” value ([2]; 2 h) of the same compound?
The value was 0.190 ± 0.003 % of injected dose per gram of tissue weight.

And the “Biodistribution Blood” value ([2]; 2 h)?
Its value is 1.388 ± 0.063 % of injected dose per gram of tissue weight.

What about the “Biodistribution Heart” value ([2]; 2 h) of the same compound?
The value was 0.283 ± 0.017 % of injected dose per gram of tissue weight.

And the “Biodistribution Intestine” value ([2]; 2 h)?
The value was 0.276 ± 0.061 % of injected dose per gram of tissue weight.

And the “Biodistribution Kidney” value ([2]; 2 h)?
The value was 6.088 ± 0.305 % of injected dose per gram of tissue weight.

And the “Biodistribution Liver” value ([2]; 2 h)?
Its value is 1.461 ± 0.049 % of injected dose per gram of tissue weight.

And the “Biodistribution Lung” value ([2]; 2 h)?
Its value is 0.712 ± 0.098 % of injected dose per gram of tissue weight.

What about the “Biodistribution Muscle” value ([2]; 2 h) of the same compound?
The value was 0.062 ± 0.003 % of injected dose per gram of tissue weight.

What about the “Biodistribution Spleen” value ([2]; 2 h) of the same compound?
Its value is 0.965 ± 0.056 % of injected dose per gram of tissue weight.

What about the “Biodistribution Stomach” value ([2]; 2 h) of the same compound?
Its value is 0.187 ± 0.004 % of injected dose per gram of tissue weight.

What about the “Biodistribution Thyroid” value ([2]; 2 h) of the same compound?
Its value is 0.449 ± 0.015 % of injected dose per gram of tissue weight.

What about the “Biodistribution Tumor” value ([2]; 2 h) of the same compound?
Its value is 0.424 ± 0.019 % of injected dose per gram of tissue weight.

What about the “Biodistribution UTERUS” value ([2]; 2 h) of the same compound?
Its value is 0.334 ± 0.034 % of injected dose per gram of tissue weight.

And the Tumor/Blood ([2]; 2 h)?
The Tumor/Blood was 0.307 ± 0.018.

And the Tumor/Muscle ([2]; 2 h)?
Its Tumor/Muscle is 6.876 ± 0.704.

What about the UTERUS/BLOOD ([2]; 2 h) of the same compound?
Its UTERUS/BLOOD is 0.240 ± 0.021.

What about the UTERUS/MUSCLE ([2]; 2 h) of the same compound?
Its UTERUS/MUSCLE is 5.442 ± 0.852.

And the BONE/MUSCLE ([2]; 4 h)?
The BONE/MUSCLE was 4.314 ± 0.739.

What about the “Biodistribution BONE & JOINT” value ([2]; 4 h) of the same compound?
Its value is 0.178 ± 0.022 % of injected dose per gram of tissue weight.

And the “Biodistribution Blood” value ([2]; 4 h)?
The value was 1.031 ± 0.033 % of injected dose per gram of tissue weight.

And the “Biodistribution Heart” value ([2]; 4 h)?
The value was 0.224 ± 0.004 % of injected dose per gram of tissue weight.

And the “Biodistribution Intestine” value ([2]; 4 h)?
Its value is 0.190 ± 0.006 % of injected dose per gram of tissue weight.

What about the “Biodistribution Kidney” value ([2]; 4 h) of the same compound?
Its value is 6.363 ± 0.260 % of injected dose per gram of tissue weight.

What about the “Biodistribution Liver” value ([2]; 4 h) of the same compound?
Its value is 1.506 ± 0.080 % of injected dose per gram of tissue weight.

What about the “Biodistribution Lung” value ([2]; 4 h) of the same compound?
The value was 0.500 ± 0.011 % of injected dose per gram of tissue weight.

What about the “Biodistribution Muscle” value ([2]; 4 h) of the same compound?
Its value is 0.002 ± 0.004 % of injected dose per gram of tissue weight.

And the “Biodistribution Spleen” value ([2]; 4 h)?
Its value is 0.981 ± 0.041 % of injected dose per gram of tissue weight.

And the “Biodistribution Stomach” value ([2]; 4 h)?
The value was 0.139 ± 0.004 % of injected dose per gram of tissue weight.

And the “Biodistribution Thyroid” value ([2]; 4 h)?
The value was 0.372 ± 0.021 % of injected dose per gram of tissue weight.

And the “Biodistribution Tumor” value ([2]; 4 h)?
Its value is 0.406 ± 0.004 % of injected dose per gram of tissue weight.

What about the “Biodistribution UTERUS” value ([2]; 4 h) of the same compound?
The value was 0.263 ± 0.005 % of injected dose per gram of tissue weight.

And the Tumor/Blood ([2]; 4 h)?
The Tumor/Blood was 0.395 ± 0.014.

And the Tumor/Muscle ([2]; 4 h)?
Its Tumor/Muscle is 9.715 ± 0.387.

And the UTERUS/BLOOD ([2]; 4 h)?
The UTERUS/BLOOD was 0.255 ± 0.005.

And the UTERUS/MUSCLE ([2]; 4 h)?
The UTERUS/MUSCLE was 6.278 ± 0.199.

And the “cellular uptake compared to ^99mTc-EC” value [3]?
The value was “significant increase in uptake”.

Which “cellular uptake compared to ^99mTc-EC” value [4] does the source give for `CN(C)c1ncnc2c1ncn2C1OC(CO)C(NC(=O)C2C[S][99Tc]34(=[O])[S]CC(C(=O)O)[N]3CC[N]24)C1O` (stereo not drawn) [^99mTc-EC-adenosine] here?
The value was “significant increased uptake”.

What does the source list for `C[N+](C)(C)CCCCC(NC(=O)C1C[S][99Tc]23(=[O])[S]CC(C(=O)NC(CCCC[N+](C)(C)C)C(=O)[O-])[N]2CC[N]13)C(=O)[O-]` (stereo not drawn) [^99mTc-EC-carnitine]?
count density ratios tumor/muscle and heart/muscle [5]: High count density ratios; cellular uptake compared to ^99mTc-EC [3]: more uptake

With `Nc1nc2c(ncn2CCC(CO)CNC(=O)C2C[S][99Tc]34(=[O])[S]CC(C(=O)NCC(CO)CCn5cnc6c(=O)[nH]c(N)nc65)[N]3CC[N]24)c(=O)[nH]1` (stereo not drawn) [^99mTc-EC-penciclovir] as the compound, how does the “cellular uptake compared to ^99mTc-EC” value [6] read?
The value was “significant increased uptake”.

With “^99mTc-EC-LHRH (QHWSYGLRPG; also: 99mTc-ethylenedicysteine (EC) label, attachment site not given here; UniProt P01148 24-33, looked up)” as the compound, how does the “cellular uptake compared to ^99mTc-EC” value [7] read?
The value was “significant increased uptake”.

Which IC50 [8] does the source give for angiostatin here?
The IC50 was 176 µM.
